# Reference: ChEMBL document CHEMBL1146877, “D609 blocks cell survival and induces apoptosis in neural stem cells” (Bioorg Med Chem Lett, 2006)
# Calls of active or inactive are those of the source. No cut-off for these calls is given here.
# Legend:
# Format in all cases: functional, cell-based
# Settings in all cases: Rattus norvegicus
# NSC [1] = assay: Induction of necrosis in NSC cells assessed as lactate dehydrogenase release at 56.29 uM within 72 hrs relative to control
# NSC [2] = assay: Inhibition of reactive oxygen species accumulation in NSC cells relative to control
# NSC [3] = assay: Decrease in viability of NSC cells at 37.53 uM for 48 hrs in presence of bFGF
# NSC [4] = assay: Decrease in viability of NSC cells at 56.29 uM for 72 hrs in presence of bFGF
# NSC [5] = assay: Decrease in viability of NSC cells at 18.76 uM for 24 hrs in presence of bFGF
# NSC [6] = assay: Induction of apoptosis in NSC cells by TUNEL assay
structure (smiles),measurement,setting,value
S=C(S)OC1CC2CC1C1CCCC21 (stereo unspecified),Activity,NSC [1],inactive
same,Activity,NSC [2],Active
same,Activity,NSC [3],Active
same,Activity,NSC [4],Active
same,Activity,NSC [5],Active
same,Activity,NSC [6],Active
